# Read-outs that look alike come from different tables or passages of the source.
# What was measured:
# [1] = system: Mycobacterium smegmatis (Msm); design: broth microdilution MIC, resazurin read-out, 4 days at 37 C; conditions: without clavulanic acid; 96 h
# [2] = system: Mycobacterium smegmatis (Msm); test: microbe, parasite or virus in culture; conditions: without clavulanic acid, 96 h
# Mtb PBP3 Δ1-122 [3] = target: T1, Mtb PBP3 Δ1-122 (Mycobacterium tuberculosis, UniProt L0T911); test: biochemical
# T1 construct: gene pbpB; N-terminally truncated (residues 1-122 removed), codon-optimised gene in pCold, E. coli BL21(DE3), His tag cleaved with 3C protease, calculated mass 60,148 Da, observed 60,152 Da
# T1 sequence (L0T911 whole entry, looked up, stated change not applied, the tested form may be a part): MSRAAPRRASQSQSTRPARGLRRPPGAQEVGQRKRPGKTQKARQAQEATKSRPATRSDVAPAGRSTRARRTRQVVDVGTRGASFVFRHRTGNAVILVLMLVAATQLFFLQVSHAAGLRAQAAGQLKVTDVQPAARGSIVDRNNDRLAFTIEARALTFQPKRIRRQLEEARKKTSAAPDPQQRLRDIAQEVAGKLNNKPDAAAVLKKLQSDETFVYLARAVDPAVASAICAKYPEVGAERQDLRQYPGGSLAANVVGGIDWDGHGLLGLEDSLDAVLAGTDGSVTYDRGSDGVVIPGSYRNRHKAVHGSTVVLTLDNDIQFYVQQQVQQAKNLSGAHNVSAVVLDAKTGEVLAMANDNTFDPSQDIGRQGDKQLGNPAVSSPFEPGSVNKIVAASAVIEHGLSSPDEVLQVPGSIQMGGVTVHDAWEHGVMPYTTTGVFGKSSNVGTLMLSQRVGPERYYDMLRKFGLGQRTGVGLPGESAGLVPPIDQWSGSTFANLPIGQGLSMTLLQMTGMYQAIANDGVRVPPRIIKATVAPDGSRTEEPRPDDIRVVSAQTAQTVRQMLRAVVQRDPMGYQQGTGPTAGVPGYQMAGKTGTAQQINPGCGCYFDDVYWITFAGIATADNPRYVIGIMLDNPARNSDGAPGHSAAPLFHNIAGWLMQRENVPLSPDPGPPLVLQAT
# Mtb PBP3 Δ1-122 [4] = target: T1, Mtb PBP3 Δ1-122; test: biochemical; format: biochemical
# LdtMt2 [5] = target: T2, LdtMt2 (Mycobacterium tuberculosis, UniProt I6Y9J2); test: biochemical
# T2 construct: gene ldtB
# T2 sequence (I6Y9J2 35-408): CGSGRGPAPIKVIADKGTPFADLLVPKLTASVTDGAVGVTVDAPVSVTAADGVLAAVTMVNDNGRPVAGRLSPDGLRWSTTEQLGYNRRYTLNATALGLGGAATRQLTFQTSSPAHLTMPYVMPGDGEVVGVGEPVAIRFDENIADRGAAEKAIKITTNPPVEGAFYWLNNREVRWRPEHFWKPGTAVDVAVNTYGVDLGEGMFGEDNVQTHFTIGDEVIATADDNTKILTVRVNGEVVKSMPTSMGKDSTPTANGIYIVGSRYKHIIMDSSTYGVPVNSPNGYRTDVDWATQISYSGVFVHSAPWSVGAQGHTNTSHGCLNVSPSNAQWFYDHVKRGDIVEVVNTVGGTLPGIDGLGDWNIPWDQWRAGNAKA
# LdtMt2 [6] = target: T2, LdtMt2; test: biochemical; remark: listed apart in the source
# [7] = system: Mycobacterium smegmatis (Msm); conditions: without clavulanic acid; 96 h
# [8] = 10 min pre-incubation, read-out: pIC50 LdtMt2 (converted)
structure (smiles),measurement,setting,value
CC[C@@H](CO)NCCN[C@@H](CC)CO [Ethambutol],"MIC Msm (µg/mL), no clavulanic acid",[1],0.25 µg/mL
"C[C@@H](O)[C@H]1C(=O)N2C(C(=O)O)=C([C@H]3CCCO3)S[C@H]12 [compound 1, faropenem]","MIC Msm (µg/mL), no clavulanic acid",[2],16 µg/mL
"C[C@@H](O)[C@H]1C(=O)N2C(C(=O)O)=C(SCCN=CN)C[C@H]12 [compound 2, imipenem]","MIC Msm (µg/mL), no clavulanic acid",[2],0.125 µg/mL
same,IC50,Mtb PBP3 Δ1-122 [3],0.501 µM
"CC(C)(O/N=C(\C(=O)N[C@@H]1C(=O)N2C(C(=O)[O-])=C(C[n+]3ccccc3)CS[C@H]12)c1csc(N)n1)C(=O)O [compound 6, ceftazidime]","MIC Msm (µg/mL), no clavulanic acid",[2],>128 µg/mL
same,IC50,Mtb PBP3 Δ1-122 [4],3.16 µM
"CO/N=C(\C(=O)N[C@@H]1C(=O)N2C(C(=O)O)=C(CSc3nc(=O)c(=O)[nH]n3C)CS[C@H]12)c1csc(N)n1 [compound 7, ceftriaxone]","MIC Msm (µg/mL), no clavulanic acid",[2],>128 µg/mL
"CC1(C)S[C@@H]2[C@H](NC(=O)[C@H](N)c3ccccc3)C(=O)N2[C@H]1C(=O)O [compound 11, ampicillin]","MIC Msm (µg/mL), no clavulanic acid",[2],>128 µg/mL
"CC1(C)S[C@@H]2[C@H](NC(=O)[C@H](N)c3ccc(O)cc3)C(=O)N2[C@H]1C(=O)O [compound 12, amoxicillin]","MIC Msm (µg/mL), no clavulanic acid",[2],>128 µg/mL
"CC1(C)S[C@@H]2[C@H](NC(=O)C(C(=O)O)c3ccccc3)C(=O)N2[C@H]1C(=O)O (stereo partly drawn) [compound 15, carbenicillin]",IC50,Mtb PBP3 Δ1-122 [4],3.98 µM
"C[C@H]1[C@H](NC(=O)/C(=N\OC(C)(C)C(=O)O)c2csc(N)n2)C(=O)N1S(=O)(=O)O [compound 16, aztreonam]",IC50,Mtb PBP3 Δ1-122 [4],158 µM
"O=C(O)[C@H]1/C(=C/CO)O[C@@H]2CC(=O)N21 [compound 17, clavulanic acid]",MIC,"[2]; Mycolicibacterium smegmatis, read-out: MIC Msm (µg/mL), no clavulanic acid",128 µg/mL
same,IC50,Mtb PBP3 Δ1-122 [3],> 398 µM
"CCC(C)[C@H](NC(=O)OCc1ccccc1)C(=O)CCl (stereo partly drawn) [compound 18, 18]",pIC50,Mtb PBP3 Δ1-122 [4],< 3.4
CCC(C)[C@H](NC(=O)OCc1ccccc1)C(=O)CCl (stereo partly drawn) [compound 18],"MIC Msm (µg/mL), no clavulanic acid",[2],>128 µg/mL
O=C1C=CC(=O)N1c1ccc(Oc2ccccc2)c(Cl)c1 [compound 19],"MIC Msm (µg/mL), no clavulanic acid",[2],64 µg/mL
same,IC50,Mtb PBP3 Δ1-122 [3],100 µM
O=C(OCN1C(=O)C=CC1=O)c1ccccc1 [compound 20],"MIC Msm (µg/mL), no clavulanic acid",[2],64 µg/mL
"O=c1c2cc(Cl)c(Cl)cc2sn1CCO [compound 21, 21]","MIC Msm (µg/mL), no clavulanic acid",[2],32 µg/mL
same,IC50,Mtb PBP3 Δ1-122 [3],79.4 µM
"COc1ccc(CN2C(=O)C(=O)c3cc(Br)cc(C)c32)cc1OC [compound 22, 22]",IC50,Mtb PBP3 Δ1-122 [4],> 398 µM
COc1ccc(CN2C(=O)C(=O)c3cc(Br)cc(C)c32)cc1OC [compound 22],"MIC Msm (µg/mL), no clavulanic acid",[2],>128 µg/mL
"O=C1C(=O)N(Cc2cccc3ccccc23)c2ccc(Br)cc21 [compound 23, 23]","MIC Msm (µg/mL), no clavulanic acid",[2],>128 µg/mL
"NC(=O)OCC1=C(C(=O)O)N2C(=O)C(NC(=O)C(=CS(=O)(=O)CCc3ccc(O)c(O)c3)c3csc(N)n3)C2SC1 (stereo not drawn) [compound 24, 24]",pIC50,Mtb PBP3 Δ1-122 [4],6.1 ± 0.089
"N#Cn1c(-c2cc(F)cc(C(F)(F)F)c2)nc2ccccc21 [compound 25, 25]","MIC Msm (µg/mL), no clavulanic acid",[2],48 µg/mL
same,IC50,Mtb PBP3 Δ1-122 [4],> 398 µM
N#Cn1c(-c2ccncc2)nc2ccc(C(=O)c3ccccc3)cc21 [compound 26],"MIC Msm (µg/mL), no clavulanic acid",[2],16 µg/mL
"O=C(C1OC1c1ccccc1)C1OC1c1ccccc1 (stereo not drawn) [compound 28, 28]",pIC50,Mtb PBP3 Δ1-122 [4],< 3.4
"COc1cccc(NC(=O)C(Cl)=C(Cl)S(=O)(=O)Cc2ccccc2Cl)n1 [compound 29, 29]",pIC50,Mtb PBP3 Δ1-122 [4],< 3.4
"NC(=O)C=CC(=O)Nc1ccc(Cl)cc1 [compound 30, 30]",IC50,Mtb PBP3 Δ1-122 [4],> 398 µM
NC(=O)C=CC(=O)Nc1ccc(Cl)cc1 [compound 30],"MIC Msm (µg/mL), no clavulanic acid",[2],>128 µg/mL
"O=[N+]([O-])c1ccc(S(=O)(=O)c2ccccc2)nc1 [compound 31, 31]",kinact/KI,LdtMt2 [5]; read-out: kinact/KI LdtMt2,52.6 M⁻¹ s⁻¹
same,IC50,LdtMt2 [6]; [8],5.01 µM
same,"MIC Msm (µg/mL), no clavulanic acid",[2],8 µg/mL
same,IC50,Mtb PBP3 Δ1-122 [4],> 398 µM
"O=[N+]([O-])c1ccc(S(=O)(=O)c2ccccc2)cn1 [compound 32, 32]",kinact/KI,LdtMt2 [5]; read-out: kinact/KI LdtMt2,< 10 M⁻¹ s⁻¹
same,IC50,LdtMt2 [6]; [8],25.1 µM
same,"MIC Msm (µg/mL), no clavulanic acid",[7],4 µg/mL
"Cc1ccc(S(=O)(=O)c2ccc([N+](=O)[O-])cn2)cc1 [compound 33, 33]",kinact/KI,LdtMt2 [5]; read-out: kinact/KI LdtMt2,51.9 M⁻¹ s⁻¹
"O=[N+]([O-])c1ccc(S(=O)(=O)c2ccc(Cl)cc2)nc1 [compound 34, 34]",kinact/KI,LdtMt2 [5]; read-out: kinact/KI LdtMt2,86.9 M⁻¹ s⁻¹
"O=[N+]([O-])c1ccc(S(=O)(=O)c2ccc(Br)cc2)nc1 [compound 35, 35]",kinact/KI,LdtMt2 [5]; read-out: kinact/KI LdtMt2,272 M⁻¹ s⁻¹
"O=[N+]([O-])c1cccnc1S(=O)(=O)c1ccccc1 [compound 36, 36]",kinact/KI,LdtMt2 [5]; read-out: kinact/KI LdtMt2,< 10 M⁻¹ s⁻¹
same,IC50,LdtMt2 [6]; [8],25.1 µM
same,"MIC Msm (µg/mL), no clavulanic acid",[7],16 µg/mL
"O=S(=O)(c1ccccc1)c1ccccn1 [compound 37, 37]",kinact/KI,LdtMt2 [5]; read-out: kinact/KI LdtMt2,< 10 M⁻¹ s⁻¹
same,IC50,LdtMt2 [6]; [8],> 39.8 µM
same,"MIC Msm (µg/mL), no clavulanic acid",[7],>128 µg/mL
"O=S(=O)(c1ccccc1)c1cccnc1 [compound 38, 38]",kinact/KI,LdtMt2 [5]; read-out: kinact/KI LdtMt2,< 10 M⁻¹ s⁻¹
same,IC50,LdtMt2 [6]; [8],> 39.8 µM
same,"MIC Msm (µg/mL), no clavulanic acid",[7],>128 µg/mL
"O=S(=O)(c1ccccc1)c1ccncc1 [compound 39, 39]",kinact/KI,LdtMt2 [5]; read-out: kinact/KI LdtMt2,< 10 M⁻¹ s⁻¹
same,IC50,LdtMt2 [6]; [8],> 39.8 µM
same,"MIC Msm (µg/mL), no clavulanic acid",[7],>128 µg/mL
"COc1ccc(S(=O)(=O)c2ccccc2)nc1 [compound 40, 40]",kinact/KI,LdtMt2 [5]; read-out: kinact/KI LdtMt2,< 10 M⁻¹ s⁻¹
same,IC50,LdtMt2 [6]; [8],> 39.8 µM
same,"MIC Msm (µg/mL), no clavulanic acid",[7],>128 µg/mL
"N#Cc1ccc(S(=O)(=O)c2ccccc2)nc1 [compound 41, 41]",kinact/KI,LdtMt2 [5]; read-out: kinact/KI LdtMt2,< 10 M⁻¹ s⁻¹
same,IC50,LdtMt2 [6]; [8],25.1 µM
same,"MIC Msm (µg/mL), no clavulanic acid",[7],>128 µg/mL
"N#Cc1cccnc1S(=O)(=O)c1ccccc1 [compound 42, 42]",kinact/KI,LdtMt2 [5]; read-out: kinact/KI LdtMt2,< 10 M⁻¹ s⁻¹
same,IC50,LdtMt2 [6]; [8],> 39.8 µM
same,"MIC Msm (µg/mL), no clavulanic acid",[7],>128 µg/mL
"O=[N+]([O-])c1ccc(Cl)nc1 [compound 43, 43]",kinact/KI,LdtMt2 [5]; read-out: kinact/KI LdtMt2,< 10 M⁻¹ s⁻¹
same,IC50,LdtMt2 [6]; [8],> 39.8 µM
same,"MIC Msm (µg/mL), no clavulanic acid",[7],32 µg/mL
"Clc1ccccn1 [compound 44, 44]",kinact/KI,LdtMt2 [5]; read-out: kinact/KI LdtMt2 (M^-1 s^-1),< 10 M⁻¹ s⁻¹
same,IC50,LdtMt2 [6],> 39.8 µM
same,"MIC Msm (µg/mL), no clavulanic acid",[7],>128 µg/mL
"Nc1ncc(S(=O)(=O)c2ccc([N+](=O)[O-])cc2)s1 [compound 45, 45]","MIC Msm (µg/mL), no clavulanic acid",[7],>128 µg/mL
"O=[N+]([O-])c1ccc(S(=O)(=O)c2ncc(C(F)(F)F)cc2Cl)cc1 [compound 46, 46]",kinact/KI,LdtMt2 [5]; read-out: kinact/KI LdtMt2,< 10 M⁻¹ s⁻¹
same,IC50,LdtMt2 [6]; [8],> 39.8 µM
same,"MIC Msm (µg/mL), no clavulanic acid",[7],>128 µg/mL
C[C@@H](O)[C@H]1C(=O)N2C(C(=O)O)=C(S[C@@H]3CN[C@H](CNS(N)(=O)=O)C3)[C@H](C)[C@H]12 [doripenem],"MIC Msm (µg/mL), no clavulanic acid",[2],0.5 µg/mL
C[C@@H](O)[C@H]1C(=O)N2C(C(=O)O)=C(S[C@@H]3CN[C@H](C(=O)Nc4cccc(C(=O)O)c4)C3)[C@H](C)[C@H]12 [ertapenem],"MIC Msm (µg/mL), no clavulanic acid",[2],4 µg/mL
C[C@@H](O)[C@H]1C(=O)N2C(C(=O)O)=C(S[C@@H]3CN[C@H](C(=O)N(C)C)C3)[C@H](C)[C@H]12 [meropenem],"MIC Msm (µg/mL), no clavulanic acid",[2],2 µg/mL

# From paper PMC12486854, “Targeting mycobacterial transpeptidases: evaluating the roles of Ldt and PBP inhibition in suppressing Mycobacterium smegmatis” (Antimicrobial Agents and Chemotherapy, 2025)
